Measurements as given in paper PMC10319141, “Imidazoquinolines with improved pharmacokinetic properties induce a high IFNα to TNFα ratio in vitro and in vivo” (Frontiers in Immunology, 2023).

How the values were obtained:
[1] = Compound concentrations in organs and blood after 3, 6, 12 µmol/kg s.c. (Figure 4A); type: in vivo, C57BL/6 mice; conditions: female, C57BL/6, mouse, sc; for concentration at 8 h: 8 h after treatment; for concentration at 1 h: whole blood (peripheral, tail), 1 h post application, whole blood
Procedure: (§1) All samples were extracted with 3 or 6 volumes acetonitrile containing terbuthylazine as an internal standard (ACN) relative to either sample weight or volume. Liquid samples (plasma, culture medium, cell suspensions in stability experiments) were diluted in either 3 (culture medium, cell suspensions) or 6 (plasma) volumes ACN, pellet and blood samples were extracted by addition of ACN followed by sonication for 5 min. Organ samples were digested with 0.5 µg/mg Proteinase K (Genaxxon) for 1 h at 50°C before being homogenized using a Fastprep FP-24 5G instrument (MP-Biomedicals). Homogenates were diluted with 6 volumes ACN and homogenized again. All extracts were cleared by centrifugation at ~20.000xg for 10 min at 4°C.
(§2) Quantification of analytes was performed on an Agilent 1260/1290 Infinity system fitted with an Agilent C18 Poroshell 120 column (4.6 x 50 mm, 2.7 µm) coupled to a triple quadrupole Sciex API 4000 MS/MS detector. The mobile phase was composed of water containing 0.1% formic acid (eluent A) and acetonitrile containing 0.1% formic acid (eluent B). Gradient used was: 5% B for 0.5 min, to 100% B in 4.5 min, 100% B for 2 min, to 5% B in 0.5 min, 5% for 2.5 min. MS detection parameters are listed in SI Table S1 .
(§3) Formulation. Test compounds were prepared for application in either 1% Tween 80, 9% PEG400 in ultrapure water (Biowest) (i.v., i.p., p.o. application) or 5 mM citric acid in 0.9% saline (Braun) (subcutaneous application). If compounds were administered subcutaneously, injections were carried out into the neck crease.
(§4) Collection of Samples. Mice were bled from the tail vein at various timepoints. Heparin (Sigma) or K2-EDTA (Sigma) was added to blood samples to a final […] concentration of 10-15 Unit or 5 mM. Plasma was generated by centrifugation at 6800xg for 8 min at 4°C and stored at -80°C until analyzed by ELISA or CBA. Animals were sacrificed after the indicated time points by CO2 inhalation. Heart blood and organs for compound quantification by HPLC-MS/MS were collected post mortem and stored at –20°C until extracted as described above.
(A) Organs were sampled 8 h after treatment and compound concentration was determined via HPLC-MS/MS. Data are presented as mean ± SD. (B) Cytokine levels in tail plasma over time were determined via cytometric bead array. At each sampling timepoint the plasma of mice in one treatment group was pooled.

[2] = Compound concentrations in organs after activity-adjusted s.c. doses (Figure 5B); type: in vivo, C57BL/6 mice; conditions: 3 µmol/kg s.c., 8 h post compound application; for concentration at 8 h: female, C57BL/6, mouse, sc
Procedure: as §1, §2, §3, §4
Compound concentration in (A) peripheral blood collected via tail bleeding before, 15, 30 60, 120, 240, 360 and 480 min after s.c. compound application and (B) organs collected after 8 h was assessed via HPLC-MS/MS. (A, B) Data are presented as mean ± SD. (C) Levels of TNFα and IFNα as well as (D) IL6, CXCL1, CCL2, IFNβ, IFNγ and IL10 in tail plasma over time were determined via cytometric bead array. Area under the curve (AUC) of each cytokine was plotted against compound concentration.

Human peripheral blood = assay: Full blood stimulation assay (TNFα/IFNα by ELISA); type: cell-based; conditions: 6 h, 8 donors, normalized to maximal concentration per donor; in words
Procedure: Human peripheral blood of healthy donors was diluted in an equal volume of culture medium as described in 3.2, blood was treated with test compounds or controls at various concentrations and incubated at 37°C, 5% CO2 for 6 h. Cells were pelleted by centrifugation at 400xg for 5 min and supernatants were collected.
(§5) Cytokine concentrations in samples were quantified either by ELISA (hTNFα, R&D Systems; hIFNα, Mabtech) or cytometric bead arrays (CBA, LegendPlex mouse anti-virus response panel, BioLegend) according to the manufacturer’s instructions. CBAs were acquired on a ZE5 Cell Analyzer (Bio-Rad) and analyzed using the LegendPlex Software Suite (Qognit/BioLegend). Absorbance of ELISA-samples was quantified using a Versamax microplate reader (Molecular Devices).

[3] = Compound concentrations in organs and plasma after three consecutive daily s.c. treatments (Figure 6B, S7); type: in vivo, mice; conditions: for compound plasma level at peak: s.c.; for concentration at 4 h / concentration at 28 h / concentration at 52 h: mouse, liver, sc, read-out: concentration in liver; for concentration at 4 h / concentration at 28 h / concentration at 52 h / levels in brain tissue / concentration in liver: repeated daily s.c. treatment; for levels in brain tissue: in words
Procedure: as §1, §2, §3, §4
(§6) Dotted lines indicate the time of repeated compound applications. (A) Cytokine levels in pooled tail plasma of mice from individual treatment groups (n=3 per pool and time point), error bars represent range of two replicate measurements. (B) Peripheral blood was collected from the tail vein before, 15, 30 60, 120, 240, 360 and 480 min after s.c. treatment. Compound concentration in peripheral plasma was analyzed by HPLC-MS/MS, data presented as mean ± SD.
Samples were collected 4 h, 28 h and 52 h after s.c. treatment. Skin samples were sampled
at time points 4 h and 52 h. Compound concentrations were analyzed by HPLC-MS/MS, data

[4] = test system: TNFα and IFNα in peripheral plasma; assay: Cytokine induction after three consecutive daily s.c. treatments (Figure 6A, C); type: in vivo, mice; conditions: in words; for type I Interferon concentrations in plasma after the second treatment: repeated daily s.c. treatment; for secretion of TNFα after repeated treatments in comparison with IMQ and RSQ: three daily s.c. treatments
Procedure: as §5, §3, §4, §6

[5] = Stability in whole blood, U937 and RPMI; type: in vitro ADME, human; conditions: 1 µM, 37°C, over 24 h; in words
Procedure: Human blood products used in the in vitro assays (for cell stimulation and stability) were obtained from the center for transfusion medicine in Tübingen, Germany (Zentrum für Klinische Transfusionmedizin Tübingen GmbH, (ethical approval number ZKT-FoPro202106-2305-01). Test compounds (1 µM) in either culture medium (RPMI-1640 medium containing 10% fetal bovine serum, 60 mg/l Penicillin G sodium salt and 100 mg/l Streptomycin sulfate (all Biowest)), human blood (diluted 1:1 with culture medium) or a suspension of 5x10^6 cells/ml U937 in culture medium were incubated at 37°C, 450 rpm on a shaking incubator. At the indicated time points 50 µL of blood, cell suspension or medium were collected and prepared for HPLC-MS/MS-Analysis as detailed below.
All samples were extracted with 3 or 6 volumes acetonitrile containing terbuthylazine as an internal standard (ACN) relative to either sample weight or volume. Liquid samples (plasma, culture medium, cell suspensions in stability experiments) were diluted in either 3 (culture medium, cell suspensions) or 6 (plasma) volumes ACN, pellet and blood samples were extracted by addition of ACN followed by sonication for 5 min. […]
Quantification of analytes was performed on an Agilent 1260/1290 Infinity system fitted with an Agilent C18 Poroshell 120 column (4.6 x 50 mm, 2.7 µm) coupled to a triple quadrupole Sciex API 4000 MS/MS detector. […]

[6] = kidney, read-out: concentration in kidney
[7] = liver, read-out: concentration in liver
[8] = day 1, 60 min after application
[9] = day 2, 60 min after application
[10] = day 3, 60 min after application

| concentration at 8 h [1, 6] | concentration at 8 h [1, 7] | concentration at 1 h [1] | concentration at 8 h [2, 6] | concentration at 8 h [2, 7] | compound plasma level at peak [3, 8] | compound plasma level at peak [3, 9] | compound plasma level at peak [3, 10] | concentration at 4 h ([3]; after 4 h) | concentration at 28 h ([3]; after 28 h) | concentration at 52 h ([3]; after 52 h) | levels in brain tissue [3] | stability in whole blood and cell based (U937) assays [5] | Compound | relative IFNα induction in human blood (Human peripheral blood) | type I Interferon concentrations in plasma after the second treatment [4] | secretion of TNFα after repeated treatments in comparison with IMQ and RSQ [4] | also measured |
| --- | --- | --- | --- | --- | --- | --- | --- | --- | --- | --- | --- | --- | --- | --- | --- | --- | --- |
| 0.636 µM | 0.173 µM | 1.56 µM | 0.469 µM | 0.045 µM | 0.171 µM | 0.085 µM | 0.066 µM | 0.063 µM | 0.082 µM | 0.094 µM | baseline or close to baseline levels | – | CCCCc1nc2c(N)nc3ccccc3c2n1CCC1CCNCC1 [A1] | robust and similar | at the limit of detection | remained low | concentration at 8 h ([1]; lung, read-out: concentration in lung): 0.868 µM |
| 5.48 µM | 5.1 µM | 0.696 µM | 2.18 µM | 6.03 µM | 0.755 µM | 0.585 µM | 0.639 µM | 2.62 µM | 4.46 µM | 6.35 µM | baseline or close to baseline levels | stable | CCCCc1nc2c(N)nc3ccccc3c2n1CCC1CCN(C(=O)CN(C)CC(=O)N(C)C2CC(C)OC(OC3C(C)C(OC4CC(C)(OC)C(O)C(C)O4)C(C)C(=O)OC(CC)C(C)(O)C(O)C(C)N(C)CC(C)CC3(C)O)C2O)CC1 (stereo not shown) [A1-mac] | robust and similar | at the limit of detection | remained low | – |
| – | – | – | – | – | – | – | – | – | – | – | – | stable | CCCCc1nc2c(N)nc3ccccc3c2n1CC1CCN(C(=O)CN(C)CC(=O)N(C)[C@H]2C[C@@H](C)O[C@@H](O[C@@H]3[C@@H](C)[C@H](O[C@H]4C[C@@](C)(OC)[C@@H](O)[C@H](C)O4)[C@@H](C)C(=O)O[C@H](CC)[C@@](C)(O)[C@H](O)[C@@H](C)N(C)C[C@H](C)C[C@@]3(C)O)[C@@H]2O)CC1 [A2-mac] | – | – | – | – |
| – | – | 0.175 µM | – | – | < LLOQ | < LLOQ | < LLOQ | – | – | – | baseline or close to baseline levels | – | CCOCc1nc2c(N)nc3ccccc3c2n1CC(C)(C)O [RSQ, Resiquimod, reference compound] | – | – | – | concentration in liver [2]: < LLOQ; TNFα concentrations in supernatants of human blood (Human peripheral blood): highest TNFα concentrations; concentration in liver ([3]; after 4 h): < LLOQ; concentration in liver ([3]; after 28 h): < LLOQ; concentration in liver ([3]; after 52 h): < LLOQ |
